Like-named read-outs stand apart in the source and are kept apart here.
Columns and labels:
[1] = molecular target: FASN Keto-reductase Domain (hFASN enzyme, full length) (Homo sapiens (Human), UniProt P49327); test: Fatty Acid Synthase Keto-Reductase Domain (FASN KR) Inhibition; type: biochemical; settings: NADPH oxidation at 340 nm, ethyl acetoacetate substrate, mean if tested more than once; for IC50: read-out: FASN Keto-reductase Domain pIC50 (converted)
Experimental: After 20 minutes incubation at room temperature the plate was measured again (T2).
The decrease in absorbance was calculated as (Absorbance before incubation T1)−(Absorbance following incubation T2).
(§1) Raw data generated by the instrument were normalized to % Controlmin values, which were calculated as: % Controlmin=100*(x−mLC)/(mHC−mLC)
where mLC and mHC were the means of the low control wells and high control wells on the plate, after manual exclusion of outliers. A plot of Controlmin versus test compound concentration was fitted to a 4-parameter logistic curve using a non-linear least squares regression method.

A2780 ovarian cells = test: A2780 Ovarian Cell Proliferation Assay in Lipid Reduced Medium, with and without Palmitate (MTT); type: cell-based; settings: 10% lipid-reduced serum, 96 h; for IC50: Homo sapiens
[2] = test system: LNCaP_Vancouver prostate cells; test: In Vitro LNCaP Vancouver Prostate Cell Proliferation Assay in Lipid Reduced Medium; type: cell-based; settings: 10% lipid reduced serum, 96 h, ATP-glow luminescence; for IC50: Prostate cell, read-out: pIC50 LNCaP_Vancouver prostate cell (converted)
[3] = test system: PC-3M-Luc-C6 prostate cells; test: In Vitro PC-3M-Luc-C6 Prostate Cell Proliferation Assay in Lipid Reduced Medium; type: cell-based; settings: 10% lipid reduced serum, 96 h, ATP-glow luminescence; for IC50: Prostate cell, read-out: pIC50 PC-3M-Luc-C6 prostate cell (converted)
[4] = molecular target: Human FASN (hFASN enzyme, full length) (Homo sapiens (Human), UniProt P49327); test: Fatty Acid Synthase (FASN) Inhibition Scintillation Proximity Assay; type: biochemical; settings: hFASN SPA, 3H-acetyl-CoA/malonyl-CoA; mean if tested more than once; ~ = standard error of pIC50 >0.5
Experimental: In this assay, inhibition of FASN activity is measured using ^3H-acetyl-CoA and malonyl-CoA as substrates. ^3H-Acetyl CoA is converted to ^3H-palmitate through a series of reactions by the FASN protein, which contains 7 functional domains and carries out 7 enzymatic reactions to ultimately produce ^3H-palmitate. The assay principle is based upon the fact that ^3H-acetyl-CoA is hydrophilic and the end product, ^3H-palmitate is hydrophobic.
0.9 μL test compound (at concentrations of 30 μM, 10 μM, 3 μM, 1 μM, 0.30 μM, 0.10 μM, 0.03 μM and 0.01 μM)/DMSO and 10 μL hFASN enzyme (full length, 300 ng, purified in house) or 10 μL assay buffer was added to the wells. […] The reaction was stopped by adding 20 μL Streptavidin coupled imaging beads (25 mg/ml). After incubation for 30 minutes at room temperature in the dark, the 384 well plate was centrifuged at 1500 rpm for 3 minutes and was measured after at least 24 hrs by the LEADseeker™, measuring emission using a 610±20 nm pass filter.
as §1
where mLC and mHC were the means of the low control wells and high control wells on the plate, after manual exclusion of outliers. […]

[5] = no palmitate, read-out: pIC50 Without Palmitate (converted)
[6] = 25 μM palmitate added (control), read-out: pIC50 With Palmitate (converted)

Sequence of FASN Keto-reductase Domain (hFASN enzyme, full length) (P49327 whole entry, the tested form may be a part): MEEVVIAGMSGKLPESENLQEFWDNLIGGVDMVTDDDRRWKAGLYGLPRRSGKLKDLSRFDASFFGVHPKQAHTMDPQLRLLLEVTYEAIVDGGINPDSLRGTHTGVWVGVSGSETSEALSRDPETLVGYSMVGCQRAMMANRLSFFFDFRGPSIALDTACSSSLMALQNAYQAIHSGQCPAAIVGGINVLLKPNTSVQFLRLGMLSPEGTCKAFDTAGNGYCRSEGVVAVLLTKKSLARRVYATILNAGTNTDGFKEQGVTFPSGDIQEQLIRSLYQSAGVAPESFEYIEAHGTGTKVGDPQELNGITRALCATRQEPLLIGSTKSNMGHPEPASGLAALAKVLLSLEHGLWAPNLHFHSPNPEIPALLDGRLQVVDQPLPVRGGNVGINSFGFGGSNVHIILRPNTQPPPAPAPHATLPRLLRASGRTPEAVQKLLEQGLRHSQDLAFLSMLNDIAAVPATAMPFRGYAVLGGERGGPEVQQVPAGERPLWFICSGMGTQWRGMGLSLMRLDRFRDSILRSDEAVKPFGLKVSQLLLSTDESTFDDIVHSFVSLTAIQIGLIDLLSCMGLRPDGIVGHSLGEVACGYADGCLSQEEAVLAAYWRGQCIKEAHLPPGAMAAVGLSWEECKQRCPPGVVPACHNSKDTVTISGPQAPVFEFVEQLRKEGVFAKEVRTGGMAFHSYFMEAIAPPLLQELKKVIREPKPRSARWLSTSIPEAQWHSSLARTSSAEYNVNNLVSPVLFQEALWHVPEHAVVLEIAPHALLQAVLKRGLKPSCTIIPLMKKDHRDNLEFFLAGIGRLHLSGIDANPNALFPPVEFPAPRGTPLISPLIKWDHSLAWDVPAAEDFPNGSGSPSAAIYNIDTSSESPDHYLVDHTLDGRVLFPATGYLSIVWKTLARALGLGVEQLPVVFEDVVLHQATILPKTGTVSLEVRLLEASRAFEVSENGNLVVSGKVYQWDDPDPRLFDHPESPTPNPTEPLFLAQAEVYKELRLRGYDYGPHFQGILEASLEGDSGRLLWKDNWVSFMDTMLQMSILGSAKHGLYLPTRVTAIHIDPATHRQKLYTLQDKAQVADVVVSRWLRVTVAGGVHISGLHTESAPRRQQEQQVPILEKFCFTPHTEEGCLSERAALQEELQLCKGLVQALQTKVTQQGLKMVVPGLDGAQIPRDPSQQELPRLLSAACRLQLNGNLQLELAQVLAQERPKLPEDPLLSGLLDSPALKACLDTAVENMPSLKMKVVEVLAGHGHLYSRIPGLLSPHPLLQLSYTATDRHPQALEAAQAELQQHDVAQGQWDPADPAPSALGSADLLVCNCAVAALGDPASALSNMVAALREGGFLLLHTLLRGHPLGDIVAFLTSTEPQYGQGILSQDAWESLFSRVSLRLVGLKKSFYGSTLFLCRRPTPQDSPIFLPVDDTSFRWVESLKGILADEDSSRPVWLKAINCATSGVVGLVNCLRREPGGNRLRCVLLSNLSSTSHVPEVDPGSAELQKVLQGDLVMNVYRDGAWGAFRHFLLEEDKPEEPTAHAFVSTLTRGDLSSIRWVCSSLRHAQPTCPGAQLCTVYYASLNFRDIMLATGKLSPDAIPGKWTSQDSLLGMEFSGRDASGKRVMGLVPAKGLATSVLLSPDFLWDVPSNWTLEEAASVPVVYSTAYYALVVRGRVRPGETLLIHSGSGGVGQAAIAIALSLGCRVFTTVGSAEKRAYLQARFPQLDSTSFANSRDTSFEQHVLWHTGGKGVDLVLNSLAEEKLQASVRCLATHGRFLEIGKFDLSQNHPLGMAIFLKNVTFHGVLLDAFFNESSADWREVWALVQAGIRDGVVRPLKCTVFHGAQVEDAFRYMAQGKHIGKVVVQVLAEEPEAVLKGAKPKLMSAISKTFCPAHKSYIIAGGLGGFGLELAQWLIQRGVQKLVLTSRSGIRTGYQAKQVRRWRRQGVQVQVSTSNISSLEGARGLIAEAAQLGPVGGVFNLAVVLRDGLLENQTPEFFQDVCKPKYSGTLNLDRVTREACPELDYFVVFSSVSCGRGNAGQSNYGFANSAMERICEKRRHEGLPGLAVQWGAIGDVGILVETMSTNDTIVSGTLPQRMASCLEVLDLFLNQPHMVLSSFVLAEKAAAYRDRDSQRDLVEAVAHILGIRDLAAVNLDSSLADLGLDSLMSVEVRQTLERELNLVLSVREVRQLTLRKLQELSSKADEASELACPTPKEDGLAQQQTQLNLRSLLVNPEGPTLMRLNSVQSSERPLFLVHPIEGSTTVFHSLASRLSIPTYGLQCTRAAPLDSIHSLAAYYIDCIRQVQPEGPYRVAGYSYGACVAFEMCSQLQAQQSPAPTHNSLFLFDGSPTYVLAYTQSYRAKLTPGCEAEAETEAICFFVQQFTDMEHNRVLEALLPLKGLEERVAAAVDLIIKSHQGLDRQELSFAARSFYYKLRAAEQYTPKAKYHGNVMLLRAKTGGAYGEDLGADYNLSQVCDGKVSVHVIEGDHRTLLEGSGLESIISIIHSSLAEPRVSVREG
Sequence of Human FASN (hFASN enzyme, full length) (P49327 whole entry, the tested form may be a part): as above

Compound | IC50 (A2780 ovarian cells; [5]) [nM] | IC50 [2] [nM] | IC50 [3] [nM] | IC50 (A2780 ovarian cells; [6]) [nM] | other results
CC1(C)N=C(c2ccc(-c3ccc4cc(F)ccc4c3)cc2F)N(C[C@@H]2CCN(C(=O)C3CC3)C2)C1=O [Compound 66] | ~427 | 692 | 589 |  | IC50 [1]: 52.5 nM
CC1(C)N=C(c2ccc(-c3ccc4cnccc4c3)cc2F)N(C[C@@H]2CCN(C(=O)C3CC3)C2)C1=O [Compound 68, (R)-1-((1-(cyclopropanecarbonyl)pyrrolidin-3-yl)methyl)-2-(2-fluoro-4-(isoquinolin-6-yl)phenyl)-4,4-dimethyl-1H-imidazol-5(4H)-one] | 17.4 | 204 |  |  | IC50 [1]: 47.9 nM
CC1(C)N=C(c2ccc(-c3n[nH]c4ccccc34)cc2F)N(C[C@@H]2CCN(C(=O)C3CC3)C2)C1=O [Compound 57, (R)-1-((1-(cyclopropanecarbonyl)pyrrolidin-3-yl)methyl)-2-(2-fluoro-4-(1H-indazol-3-yl)phenyl)-4,4-dimethyl-1H-imidazol-5(4H)-one] |  | 1780 | 646 |  | IC50 [1]: 2750 nM
1-((1-(cyclopropanecarbonyl)azetidin-3-yl)methyl)-2-(2-fluoro-4-(1-methyl-1H-indazol-5-yl)phenyl)-4,4-dimethyl-1H-1-imidazol-5(4H)-one [Compound 69] |  |  |  |  | Human FASN pIC50 [4]: 6.96; FASN Keto-reductase Domain pIC50 [1]: 6.67; pIC50 With Palmitate (A2780 ovarian cells; 25 μM palmitate added (control)): <5; pIC50 Without Palmitate (A2780 ovarian cells; no palmitate): 7.19; pIC50 LNCaP_Vancouver prostate cell [2]: 6.87; pIC50 PC-3M-Luc-C6 prostate cell [3]: 7.04
CC1(C)N=C(c2ccc(-c3ccc(-c4ccncc4)cc3)cc2)N(CC2CN(C(=O)C3CC3)C2)C1=O [Compound 26, 1-((1-(cyclopropanecarbonyl)azetidin-3-yl)methyl)-4,4-dimethyl-2-(4′-(pyridin-4-yl)-[1,1′-biphenyl]-4-yl)-1H-imidazol-5(4H)-one] | 1950 | 3390 | 1000 | > 10000 | 
CC1(C)N=C(c2ccc(-c3ccc4cncnc4c3)cc2)N(C[C@@H]2CCN(C(=O)C3CC3)C2)C1=O [Compound 42, (R)-1-((1-(cyclopropanecarbonyl)pyrrolidin-3-yl)methyl)-4,4-dimethyl-2-(4-(quinazolin-7-yl)phenyl)-1H-imidazol-5(4H)-one] | ~191 | 1000 | 417 | > 10000 | 
CC1(c2ccccc2)N=C(c2ccc(-c3ccc4[nH]ccc4c3)cc2)N(C[C@@H]2CCN(C(=O)C3CC3)C2)C1=O (mixture of isomers) [Compound 7, (4RS)-2-(4-(1H-Indol-5-yl)phenyl)-1-(((R)-1-(cyclopropanecarbonyl)pyrrolidin-3-yl)methyl)-4-methyl-4-phenyl-1H-imidazol-5(4H)-one] | 132 | 234 | 74.1 | > 10000 | 
CC1(C)N=C(c2ccc(-c3cccc4ncccc34)cc2)N(C[C@@H]2CCN(C(=O)C3CC3)C2)C1=O [Compound 31, (R)-1-((1-(cyclopropanecarbonyl)pyrrolidin-3-yl)methyl)-4,4-dimethyl-2-(4-(quinolin-5-yl)phenyl)-1H-1-imidazol-5(4H)-one] | ~1000 | 912 | ~617 | > 10000 | 
CC1(C)N=C(c2ccc(-c3ccc4cncnc4c3)cc2F)N(C[C@@H]2CCN(C(=O)C3CC3)C2)C1=O [Compound 44, (R)-1-((1-(cyclopropanecarbonyl)pyrrolidin-3-yl)methyl)-2-(2-fluoro-4-(quinazolin-7-yl)phenyl)-4,4-dimethyl-1H-imidazol-5(4H)-one] | 46.8 | 389 | 47.9 | > 10000 | 
CC1(C)N=C(c2ccc(-c3nc4ccccc4[nH]3)cc2)N(C[C@@H]2CCN(C(=O)C3CC3)C2)C1=O [Compound 71, (R)-2-(4-(1H-benzo[d]imidazol-2-yl)phenyl)-1-((1-(cyclopropanecarbonyl)pyrrolidin-3-yl)methyl)-4,4-dimethyl-1H-imidazol-5(4H)-one] | ~9330 |  |  | > 10000 | Human FASN pIC50 [4]: 5.23
CC1(C)N=C(c2ccc(-c3nc4ccccc4o3)cc2F)N(C[C@@H]2CCN(C(=O)C3CC3)C2)C1=O [Compound 51, (R)-2-(4-(benzo[d]oxazol-2-yl)-2-fluorophenyl)-1-((1-(cyclopropanecarbonyl)pyrrolidin-3-yl)methyl)-4,4-dimethyl-1H-imidazol-5(4H)-one] | 288 | 794 | 324 | > 10000 | 
CC1(C)N=C(c2ccc(-c3ccc4cccc(F)c4c3)cc2)N(C[C@@H]2CCN(C(=O)C3CC3)C2)C1=O [Compound 41, (R)-1-((1-(cyclopropanecarbonyl)pyrrolidin-3-yl)methyl)-2-(4-(8-fluoronaphthalen-2-yl)phenyl)-4,4-dimethyl-1H-imidazol-5(4H)-one] | ~347 | 1150 | 417 | > 10000 | 
CC1(C)N=C(c2ccc(-c3nc4ccccc4s3)cc2F)N(CC2CN(C(=O)C3CC3)C2)C1=O [Compound 34, 2-(4-(benzo[d]thiazol-2-yl)-2-fluorophenyl)-1-((1-(cyclopropanecarbonyl)azetidin-3-yl)methyl)-4,4-dimethyl-1H-imidazol-5(4H)-one] | 1000 | 2630 | 832 | > 10000 | 
Cc1cc(-c2ccc3c(cnn3C)c2)ccc1C1=NC(C)(C)C(=O)N1CC1CN(C(=O)C2(C)CC2)C1 [Compound 77, 4,4-dimethyl-2-(2-methyl-4-(1-methyl-1H-1-indazol-5-yl)phenyl)-1-((1-(1-methylcyclopropanecarbonyl)azetidin-3-yl)methyl)-1H-imidazol-5(4H)-one] | 316 | 1170 | 112 | > 10000 | 
CC1(C)N=C(c2ccc(-c3ccc4cc(F)ccc4c3)cc2)N(C[C@@H]2CCN(C(=O)C3CC3)C2)C1=O [Compound 30, (R)-1-((1-(cyclopropanecarbonyl)pyrrolidin-3-yl)methyl)-2-(4-(6-fluoronaphthalen-2-yl)phenyl)-4,4-dimethyl-1H-imidazol-6(4H)-one] | 1230 | 3390 | 490 | > 10000 | 
CC1(C)N=C(c2ccc(-c3c[nH]c4ccccc34)cc2F)N(C[C@@H]2CCN(C(=O)C3CC3)C2)C1=O [Compound 63, (R)-1-((1-(cyclopropanecarbonyl)pyrrolidin-3-yl)methyl)-2-(2-fluoro-4-(1H-indol-3-yl)phenyl)-4,4-dimethyl-1H-imidazol-5(4H)-one] |  | 525 |  |  | IC50 [1]: 186 nM
CC1(C2CC2)N=C(c2ccc(-c3ccc4occc4c3)cc2)N(C[C@@H]2CCN(C(=O)C3CC3)C2)C1=O (mixture of isomers) [Compound 9, (4RS)-2-(4-(Benzofuran-5-yl)phenyl)-1-(((R)-1-(cyclopropanecarbonyl)pyrrolidin-3-yl)methyl)-4-cyclopropyl-4-methyl-1H-imidazol-5(4H)-one] | ~1910 | 2040 | 1620 | > 10000 | 

Reference: patent US10413545B2, “Imidazolin-5-one derivative useful as FASN inhibitors for the treatment of cancer” (Janssen Pharmaceutica NV, priority 2013, dated 2019)
